Reference: patent US11964973B2 (priority 2019, dated 2024)
Like-named read-outs stand apart in the source and are kept apart here. Blank lines part the entries; values can stand above or below the molecule they belong to.

Experiments:
[1] = test system: human venous whole blood, CD8 positive population (pERK); assay: DGK human whole blood pERK assay; format: cell-based
Outline: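 Read-out is the pERK-positive fraction of CD8+ cells measured by flow cytometry. Donor venous blood (heparin) saw compound for one hour at 37° C before a 15-minute anti-CD3 challenge (1 μg/mL final) with cross-linking anti-mouse IgG.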

[2] = target: human DGKζ (Homo sapiens (Human), UniProt Q13574); assay: biochemical; format: biochemical; conditions: Table A; liposome (LIPGLO) assay; read-out: DGKζ
Chain of human DGKζ (Q13574 whole entry, looked up): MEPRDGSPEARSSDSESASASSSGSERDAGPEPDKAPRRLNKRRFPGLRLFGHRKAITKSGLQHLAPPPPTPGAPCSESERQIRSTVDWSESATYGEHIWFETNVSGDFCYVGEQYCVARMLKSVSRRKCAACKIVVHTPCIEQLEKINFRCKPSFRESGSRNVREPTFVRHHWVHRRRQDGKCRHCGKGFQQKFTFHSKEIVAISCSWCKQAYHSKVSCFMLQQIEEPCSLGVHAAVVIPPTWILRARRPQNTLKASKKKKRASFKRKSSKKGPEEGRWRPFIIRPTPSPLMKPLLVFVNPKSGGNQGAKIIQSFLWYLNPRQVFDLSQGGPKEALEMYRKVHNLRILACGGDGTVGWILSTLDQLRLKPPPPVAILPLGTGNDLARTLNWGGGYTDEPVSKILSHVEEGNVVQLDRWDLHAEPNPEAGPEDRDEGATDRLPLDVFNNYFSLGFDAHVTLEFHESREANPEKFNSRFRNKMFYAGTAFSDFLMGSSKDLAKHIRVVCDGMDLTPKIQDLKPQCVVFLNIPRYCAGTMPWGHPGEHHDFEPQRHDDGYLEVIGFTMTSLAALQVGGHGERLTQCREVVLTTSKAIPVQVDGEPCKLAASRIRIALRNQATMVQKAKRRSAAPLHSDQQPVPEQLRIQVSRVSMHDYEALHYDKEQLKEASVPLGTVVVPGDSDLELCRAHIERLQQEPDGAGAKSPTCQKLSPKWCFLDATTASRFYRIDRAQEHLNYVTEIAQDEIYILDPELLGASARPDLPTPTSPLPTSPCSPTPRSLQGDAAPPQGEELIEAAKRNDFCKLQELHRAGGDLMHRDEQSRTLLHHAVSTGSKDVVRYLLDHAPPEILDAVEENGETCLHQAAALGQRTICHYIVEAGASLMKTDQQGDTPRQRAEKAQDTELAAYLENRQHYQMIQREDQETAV

[3] = target: Human DGKα(9-727) (Homo sapiens (Human), UniProt P23743); assay: biochemical; conditions: Table A, liposome (LIPGLO) assay
Chain of Human DGKα(9-727) (P23743 whole entry, looked up): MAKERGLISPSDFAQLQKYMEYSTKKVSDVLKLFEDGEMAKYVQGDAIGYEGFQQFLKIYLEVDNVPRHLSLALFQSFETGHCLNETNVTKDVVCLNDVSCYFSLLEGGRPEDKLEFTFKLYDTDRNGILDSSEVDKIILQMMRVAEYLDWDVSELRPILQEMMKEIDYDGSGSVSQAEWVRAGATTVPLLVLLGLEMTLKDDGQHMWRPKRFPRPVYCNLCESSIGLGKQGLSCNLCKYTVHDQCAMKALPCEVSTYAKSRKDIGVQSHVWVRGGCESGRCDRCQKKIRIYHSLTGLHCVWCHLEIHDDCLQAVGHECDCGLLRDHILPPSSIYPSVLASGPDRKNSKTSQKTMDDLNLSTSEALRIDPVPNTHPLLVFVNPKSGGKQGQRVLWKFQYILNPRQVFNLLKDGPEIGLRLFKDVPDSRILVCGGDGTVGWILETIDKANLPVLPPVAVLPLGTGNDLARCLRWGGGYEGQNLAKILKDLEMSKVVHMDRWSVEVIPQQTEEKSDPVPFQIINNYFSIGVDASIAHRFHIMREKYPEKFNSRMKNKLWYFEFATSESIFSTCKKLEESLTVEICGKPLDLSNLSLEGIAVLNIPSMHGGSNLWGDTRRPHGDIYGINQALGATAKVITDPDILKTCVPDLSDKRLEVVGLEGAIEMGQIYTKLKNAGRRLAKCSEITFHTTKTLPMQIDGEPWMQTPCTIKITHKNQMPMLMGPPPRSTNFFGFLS

[4] = test system: Human venous whole blood (IFN-γ); assay: Human whole blood IFN-γ assay; format: cell-based
Description: Assay 10: Human Whole Blood IFN-γ Assay
Human venous whole blood (22.5 μL per well), obtained from healthy donors, was pre-treated with compounds for one hour at 37° C. in a humidified 95% air/5% CO2 incubator. The blood was stimulated with 2.5 μL anti-human CD3 and anti-CD28 mAb at a final concentration of 1 μg/mL each for 24 hours at 37° C. IFN-γ in the supernatants was measured using AlphLISA kit (Cat #AL217).

[5] = target: DGKα (Homo sapiens (Human), UniProt P23743); assay: biochemical; format: biochemical; conditions: Table A; liposome (LIPGLO) assay; read-out: DGKα
Chain of DGKα (P23743 whole entry, looked up): as above

[6] = human whole blood pERK, read-out: DGK HWB
[7] = Homo sapiens, read-out: INFg Whole Blood, human whole blood IFN-γ
[8] = read-out: DGK HWB, human whole blood pERK
[9] = read-out: INFg Whole Blood, human whole blood IFN-γ
[10] = Homo sapiens, CD8 positive, human whole blood pERK, read-out: DGK HWB
[11] = Homo sapiens, CD8 positive, human whole blood, CD8 positive population, anti-CD3 stimulation, top concentration 20 μM, read-out: DGK HWB (human whole blood pERK)

SMILES: CC1CN(c2c(C#N)c(=O)n(C)c3ccc(C#N)nc23)CCC1N(C)Cc1ccc(F)cc1 (single isomer, unassigned) [Example 323, 8-(4-((4-Fluorobenzyl)(methyl)amino)-3-methylpiperidin-1-yl)-5-methyl-6-oxo-5,6-dihydro-1,5-naphthyridine-2,7-dicarbonitrile]
EC50 [1, 6]: 12 µM | IC50 [2]: 18 µM | IC50 ([3]; read-out: DGKα): 3.5 µM

SMILES: CC(C)Oc1ccc(OC2C[C@H](C)N(c3nc(=O)n(C)c4ccc(C#N)nc34)C[C@@H]2C)nc1 (mixture of isomers) [Example 246, (±)-Cis-(-4-((5-isopropoxypyridin-2-yl)oxy)-2,5-dimethylpiperidin-1-yl)-1-methyl-2-oxo-1,2-dihydropyrido[3,2-d]pyrimidine-6-carbonitrile]
EC50 [4, 7]: 0.45 µM | EC50 [1, 8]: 0.83 µM | IC50 [2]: 0.87 µM | IC50 ([3]; read-out: DGKα): 0.069 µM

SMILES: CC[C@@H]1CN(c2cc(=O)n(C)c3ccc(C#N)nc23)CC[C@H]1Oc1cccc(C(C)(C)C)c1 (single isomer, unassigned) [Example 197]
EC50 [4, 9]: 0.57 µM | EC50 ([1]; Homo sapiens, CD8 positive, read-out: DGK HWB, human whole blood pERK): 0.6 µM | IC50 [2]: 0.25 µM | IC50 ([3]; read-out: DGKα): 0.0054 µM | IC50 [5]: 0.011 µM

SMILES: C[C@H]1CN(c2cc(=O)n(C)c3ccc(C#N)nc23)[C@@H](C)CC1N(C)c1ccc(C(F)(F)F)cc1 (single isomer, unassigned) [Example 318]
EC50 [1, 10]: 20 µM | IC50 ([3]; read-out: DGKα): 130 µM

SMILES: CC1CN(c2c(C#N)c(=O)n(C)c3ccc(C#N)nc23)CCC1N(C)Cc1ccc(F)cc1 (single isomer, unassigned) [Example 325, 8-(4-((4-Fluorobenzyl)(methyl)amino)-3-methylpiperidin-1-yl)-5-methyl-6-oxo-5,6-dihydro-1,5-naphthyridine-2,7-dicarbonitrile]
EC50 [1, 6]: 20 µM | IC50 [2]: 50 µM | IC50 ([3]; read-out: DGKα): 49 µM

SMILES: CC1CN(c2cc(=O)n(C)c3ccc(C#N)nc23)CCC1N(C)C(=O)c1ccc(F)cc1 (single isomer, unassigned) [Example 284, N-(1-(6-Cyano-1-methyl-2-oxo-1,2-dihydro-1,5-naphthyridin-4-yl)-3-methylpiperidin-4-yl)-4-fluoro-N-methylbenzamide]
EC50 [1, 6]: 20 µM | IC50 [2]: 120 µM | IC50 ([3]; read-out: DGKα): 23 µM

SMILES: CCO[C@H]1CN(c2cc(=O)n(C)c3ccc(C#N)nc23)CC[C@@H]1OCc1ccc(OC(C)C)cn1 (single isomer, unassigned) [Example 384]
EC50 [1, 11]: 4 µM | IC50 ([3]; read-out: DGKα LIPGLO IC50): 0.82 µM

EC50 [4, 7]: 0.78 µM | EC50 [1, 8]: 3.1 µM | IC50 [2]: 0.92 µM | IC50 ([3]; read-out: DGKα): 0.32 µM
SMILES: CC(C)Oc1ccc(OC2C[C@@H](C)N(c3nc(=O)n(C)c4ccc(C#N)nc34)C[C@H]2C)nc1 (single isomer, unassigned) [Example 244, (±)-Cis-(-4-((5-isopropoxypyridin-2-yl)oxy)-2,5-dimethylpiperidin-1-yl)-1-methyl-2-oxo-1,2-dihydropyrido[3,2-d]pyrimidine-6-carbonitrile]

SMILES: CC1CN(c2cc(=O)n(C)c3ccc(C#N)nc23)CCC1N(C)C(=O)c1ccc(F)cc1 (single isomer, unassigned) [Example 286, N-(1-(6-Cyano-1-methyl-2-oxo-1,2-dihydro-1,5-naphthyridin-4-yl)-3-methylpiperidin-4-yl)-4-fluoro-N-methylbenzamide]
EC50 [1, 6]: 8.7 µM | IC50 [2]: 9.2 µM | IC50 ([3]; read-out: DGKα): 5.2 µM

SMILES: CCO[C@H]1CN(c2cc(=O)n(C)c3ccc(C#N)nc23)CC[C@@H]1OCc1ccc(OC(C)C)cn1 [Example 383, 8-((3S,4S)-3-ethoxy-4-((5-isopropoxypyridin-2-yl)methoxy)piperidin-1-yl)-5-methyl-6-oxo-5,6-dihydro-1,5-naphthyridine-2-carbonitrile]
EC50 [1, 11]: 20 µM | IC50 ([3]; read-out: DGKα LIPGLO IC50): 6.1 µM

SMILES: CO[C@@H]1CN(c2cc(=O)n(C)c3ccc(C#N)nc23)CC[C@H]1Oc1cccc(C(F)(F)F)c1 (single isomer, unassigned) [Example 261, (±)-trans-8-(3-methoxy-4-(3-(trifluoromethyl)phenoxy)piperidin-1-yl)-5-methyl-6-oxo-5,6-dihydro-1,5-naphthyridine-2-carbonitrile]
EC50 [1, 10]: 1.5 µM | IC50 [2]: 1.4 µM | IC50 ([3]; read-out: DGKα): 0.2 µM

SMILES: CO[C@H]1CN(c2cc(=O)n(C)c3ccc(C#N)nc23)CC[C@@H]1Oc1ccc(OC(C)C)cn1 (single isomer, unassigned) [Example 269, (±)-trans-8-(4-((5-isopropoxypyridin-2-yl)oxy)-3-methoxypiperidin-1-yl)-5-methyl-6-oxo-5,6-dihydro-1,5-naphthyridine-2-carbonitrile]
EC50 [1, 10]: 2.1 µM | IC50 [2]: 1.5 µM | IC50 ([3]; read-out: DGKα): 0.047 µM

SMILES: CCO[C@H]1CN(c2cc(=O)n(C)c3ccc(C#N)nc23)CC[C@H]1Oc1cccc(C(F)(F)F)c1 (single isomer, unassigned) [Example 370, cis-8-(3-Ethoxy-4-(3-(trifluoromethyl)phenoxy)piperidin-1-yl)-5-methyl-6-oxo-5,6-dihydro-1,5-naphthyridine-2-carbonitrile]
EC50 [1, 10]: 6.7 µM | IC50 [2]: 5.6 µM | IC50 ([3]; read-out: DGKα): 5.1 µM

SMILES: CC1CN(c2c(C#N)c(=O)n(C)c3ccc(C#N)nc23)CCC1N(C)Cc1ccc(F)cc1 (single isomer, unassigned) [Example 324, 8-(4-((4-Fluorobenzyl)(methyl)amino)-3-methylpiperidin-1-yl)-5-methyl-6-oxo-5,6-dihydro-1,5-naphthyridine-2,7-dicarbonitrile]
EC50 [1, 6]: 20 µM | IC50 [2]: 130 µM | IC50 ([3]; read-out: DGKα): 130 µM

SMILES: CC(C)Oc1ccc(O[C@H]2CCN(c3cc(=O)n(C)c4ccc(C#N)nc34)C[C@@H]2O)nc1 (single isomer, unassigned) [Example 267, (±)-trans-8-(3-hydroxy-4-((5-isopropoxypyridin-2-yl)oxy)piperidin-1-yl)-5-methyl-6-oxo-5,6-dihydro-1,5-naphthyridine-2-carbonitrile]
EC50 ([4]; Homo sapiens, human whole blood IFN-γ, read-out: INFg Whole Blood): 17 µM | IC50 [2]: 10 µM | IC50 ([3]; read-out: DGKα): 0.26 µM

EC50 [4, 9]: 0.41 µM | EC50 [1, 8]: 0.8 µM | IC50 [2]: 0.05 µM | IC50 ([3]; read-out: DGKα): 0.43 µM
SMILES: CC(C)Oc1ccc(OC2C[C@@H](C)N(c3nc(=O)n(C)c4ccc(C#N)nc34)C[C@H]2C)nc1 (single isomer, unassigned) [Example 245, (±)-Cis-(-4-((5-isopropoxypyridin-2-yl)oxy)-2,5-dimethylpiperidin-1-yl)-1-methyl-2-oxo-1,2-dihydropyrido[3,2-d]pyrimidine-6-carbonitrile]

SMILES: COc1ccc(NC2C[C@H](C)N(c3cc(=O)n(C)c4ccc(C#N)nc34)C[C@H]2C)nc1 (single isomer, unassigned) [Example 280]
EC50 ([4]; human whole blood IFN-γ, read-out: INFg Whole Blood): 20 µM | IC50 [2]: 170 µM | IC50 ([3]; read-out: DGKα): 0.38 µM

SMILES: CC1CN(c2c(C#N)c(=O)n(C)c3ccc(C#N)nc23)CCC1N(C)Cc1ccc(F)cc1 (single isomer, unassigned) [Example 322, 8-(4-((4-Fluorobenzyl)(methyl)amino)-3-methylpiperidin-1-yl)-5-methyl-6-oxo-5,6-dihydro-1,5-naphthyridine-2,7-dicarbonitrile]
EC50 [1, 10]: 20 µM | IC50 [2]: 78 µM | IC50 ([3]; read-out: DGKα): 6.8 µM

SMILES: CC1CN(c2cc(=O)n(C)c3ccc(C#N)nc23)CCC1N(C)C(=O)c1ccc(F)cc1 (single isomer, unassigned) [Example 285, N-(1-(6-Cyano-1-methyl-2-oxo-1,2-dihydro-1,5-naphthyridin-4-yl)-3-methylpiperidin-4-yl)-4-fluoro-N-methylbenzamide]
EC50 [1, 6]: 20 µM | IC50 [2]: 130 µM | IC50 ([3]; read-out: DGKα): 30 µM
